In PubChem BioAssay AID588666 (The Scripps Research Institute Molecular Screening Center, 2011):
Activity calls are given as the source filed them.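 The calls were made as follows: active = MAPK1 protein level shifted by at least 30% from DMSO-treated cells, either down or up; inactive = shift under 30% either way.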

Molecular target: Mitogen-activated protein kinase 1 (Homo sapiens) (UniProt P28482)
Assay: MAPK1 protein abundance inhibitors – SW620 cells, chemiluminescent western blot, powder samples, counter-screen for KLF5 inhibitor project, late-stage follow-up (AID 588666)
Conditions: ERK1/2 western blot, 24 h, at 10 µM; for inhibition: stronger effect = higher value; for fold change: measured here: ERK1/2 protein fold change vs DMSO, stronger effect = lower value

Chain of Mitogen-activated protein kinase 1 (Homo sapiens) (P28482 whole entry, looked up): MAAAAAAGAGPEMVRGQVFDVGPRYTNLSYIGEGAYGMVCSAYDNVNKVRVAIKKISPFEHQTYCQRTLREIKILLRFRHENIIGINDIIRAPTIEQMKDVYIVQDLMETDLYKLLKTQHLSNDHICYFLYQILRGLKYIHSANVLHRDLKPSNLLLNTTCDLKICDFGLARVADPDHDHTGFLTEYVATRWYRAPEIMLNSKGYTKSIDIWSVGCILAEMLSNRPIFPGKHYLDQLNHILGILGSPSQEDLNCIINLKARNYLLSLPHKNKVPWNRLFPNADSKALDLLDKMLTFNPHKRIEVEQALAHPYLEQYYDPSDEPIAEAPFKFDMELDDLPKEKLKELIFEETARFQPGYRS

inhibition | Compound | fold change
-9.9% (inactive) | CN(C(=O)CNC(=O)/C=C/c1cccc(Cl)c1)C1CCS(=O)(=O)CC1 | 1.1
26.9% (inactive) | CN(C(=O)CNC(=O)/C=C/c1cccc(Cl)c1)C1CCS(=O)(=O)C1 (stereo unspecified) | -1.37
14.8% (inactive) | CN(C(=O)COC(=O)/C=C/c1cccc([N+](=O)[O-])c1)C1CCS(=O)(=O)C1 (stereo unspecified) | -1.17
